Test results taken from ChEMBL document CHEMBL2010711, “Synthesis and comparative evaluation of 4-oxa- and 4-aza-podophyllotoxins as antiproliferative microtubule destabilizing agents” (Bioorg Med Chem Lett, 2012).
Active and inactive are the calls of the source.

Assays:
HCC 2998 = experiment: Cytotoxicity against human HCC2998 cells after 48 hrs by trypan blue dye exclusion assay; format: functional; conditions: HCC 2998, 48 h
HCT-116 = experiment: Cytotoxicity against human HCT116 cells after 48 hrs by trypan blue dye exclusion assay; format: functional; conditions: HCT-116, 48 h
SNB-75 = experiment: Cytotoxicity against human SNB75 cells after 48 hrs by trypan blue dye exclusion assay; format: functional; conditions: SNB-75, 48 h
SK-MEL-28 = experiment: Cytotoxicity against human SK-MEL-28 cells after 48 hrs by trypan blue dye exclusion assay; format: functional; conditions: SK-MEL-28, 48 h
SK-MEL-5 = experiment: Cytotoxicity against human SK-MEL-5 cells after 48 hrs by trypan blue dye exclusion assay; format: functional; conditions: SK-MEL-5, 48 h
U-251 = experiment: Cytotoxicity against human U251 cells after 48 hrs by trypan blue dye exclusion assay; format: functional; conditions: U-251, 48 h
HT-29 = experiment: Cytotoxicity against human HT-29 cells after 48 hrs by trypan blue dye exclusion assay; format: functional; conditions: HT-29, 48 h
UO-31 = experiment: Cytotoxicity against human UO31 cells after 48 hrs by trypan blue dye exclusion assay; format: functional; conditions: UO-31, 48 h
LOX IMVI = experiment: Cytotoxicity against human LOXIMVI cells after 48 hrs by trypan blue dye exclusion assay; format: functional
[1] = Cytotoxicity against human Hs 578T cells after 48 hrs by trypan blue dye exclusion assay; format: functional
Paracentrotus lividus [2] = experiment: Antimitotic activity against Paracentrotus lividus embryo assessed as cleavage alteration at 2 fold less effective threshold concentration after 2.5 to 6 hrs; format: functional, organism-based
ACHN = experiment: Cytotoxicity against human ACHN cells after 48 hrs by trypan blue dye exclusion assay; format: functional
KM12 = experiment: Cytotoxicity against human KM12 cells after 48 hrs by trypan blue dye exclusion assay; format: functional; conditions: KM12, 48 h
NCI/ADR-RES = experiment: Cytotoxicity against human NCI/ADR-RES cells after 48 hrs by trypan blue dye exclusion assay; format: functional
SN12C = experiment: Cytotoxicity against human SN12C cells after 48 hrs by trypan blue dye exclusion assay; format: functional
HCT-15 = experiment: Cytotoxicity against human HCT15 cells after 48 hrs by trypan blue dye exclusion assay; format: functional; conditions: HCT-15, 48 h
MDA-MB-468 = experiment: Cytotoxicity against human MDA-MB-468 cells after 48 hrs by trypan blue dye exclusion assay; format: functional; conditions: MDA-MB-468, 48 h
SK-MEL-2 = experiment: Cytotoxicity against human SK-MEL-2 cells after 48 hrs by trypan blue dye exclusion assay; format: functional; conditions: SK-MEL-2, 48 h
Paracentrotus lividus [3] = experiment: Antimitotic activity against Paracentrotus lividus embryo assessed as cleavage arrest at 2 fold less effective threshold concentration after 2.5 to 6 hrs; format: functional, organism-based
CAKI-1 = experiment: Cytotoxicity against human CAKI-1 cells after 48 hrs by trypan blue dye exclusion assay; format: functional; conditions: CAKI-1, 48 h
A549 = experiment: Cytotoxicity against human A549 cells after 48 hrs by trypan blue dye exclusion assay; format: functional; conditions: A549, 48 h
CCRF-CEM = experiment: Cytotoxicity against human CCRF-CEM cells after 48 hrs by trypan blue dye exclusion assay; format: functional
SNB-19 = experiment: Cytotoxicity against human SNB19 cells after 48 hrs by trypan blue dye exclusion assay; format: functional; conditions: SNB-19, 48 h
BT-549 = experiment: Cytotoxicity against human BT549 cells after 48 hrs by trypan blue dye exclusion assay; format: functional; conditions: BT-549, 48 h
MDA-MB-231 = experiment: Cytotoxicity against human MDA-MB-231 cells after 48 hrs by trypan blue dye exclusion assay; format: functional; conditions: MDA-MB-231, 48 h
SF-295 = experiment: Cytotoxicity against human SF295 cells after 48 hrs by trypan blue dye exclusion assay; format: functional; conditions: SF-295, 48 h
RXF 393 = experiment: Cytotoxicity against human RXF393 cells after 48 hrs by trypan blue dye exclusion assay; format: functional; conditions: RXF 393, 48 h
NCI-H322M = experiment: Cytotoxicity against human NCI-H322M cells after 48 hrs by trypan blue dye exclusion assay; format: functional
IGROV-1 = experiment: Cytotoxicity against human IGROV1 cells after 48 hrs by trypan blue dye exclusion assay; format: functional; conditions: IGROV-1, 48 h
NCI-H460 = experiment: Cytotoxicity against human NCI-H460 cells after 48 hrs by trypan blue dye exclusion assay; format: functional; conditions: NCI-H460, 48 h
SK-OV-3 = experiment: Cytotoxicity against human SKOV3 cells after 48 hrs by trypan blue dye exclusion assay; format: functional; conditions: SK-OV-3, 48 h
UACC-257 = experiment: Cytotoxicity against human UACC257 cells after 48 hrs by trypan blue dye exclusion assay; format: functional; conditions: UACC-257, 48 h
Paracentrotus lividus [4] = experiment: Microtubule destabilizing activity in Paracentrotus lividus embryo assessed as embryo spinning at 2 fold less effective threshold concentration after 15 mins to 20 hrs; format: functional, organism-based
NCI-H522 = experiment: Cytotoxicity against human NCI-H522 cells after 48 hrs by trypan blue dye exclusion assay; format: functional; conditions: NCI-H522, 48 h
RPMI-8226 = experiment: Cytotoxicity against human RPMI8226 cells after 48 hrs by trypan blue dye exclusion assay; format: functional; conditions: RPMI-8226, 48 h
NCI-H23 = experiment: Cytotoxicity against human NCI-H23 cells after 48 hrs by trypan blue dye exclusion assay; format: functional; conditions: NCI-H23, 48 h
PC-3 = experiment: Cytotoxicity against human PC3 cells after 48 hrs by trypan blue dye exclusion assay; format: functional; conditions: PC-3, 48 h
M14 = experiment: Cytotoxicity against human M14 cells after 48 hrs by trypan blue dye exclusion assay; format: functional; conditions: M14, 48 h
MDA-MB-435 = experiment: Cytotoxicity against human MDA-MB-435 cells after 48 hrs by trypan blue dye exclusion assay; format: functional; conditions: MDA-MB-435, 48 h
COLO 205 = experiment: Cytotoxicity against human COLO205 cells after 48 hrs by trypan blue dye exclusion assay; format: functional; conditions: COLO 205, 48 h
OVCAR-3 = experiment: Cytotoxicity against human OVCAR3 cells after 48 hrs by trypan blue dye exclusion assay; format: functional; conditions: OVCAR-3, 48 h
DU-145 = experiment: Cytotoxicity against human DU145 cells after 48 hrs by trypan blue dye exclusion assay; format: functional; conditions: DU-145, 48 h
786-0 = experiment: Cytotoxicity against human 786-0 cells after 48 hrs by trypan blue dye exclusion assay; format: functional; conditions: 786-0, 48 h
HL-60(TB) = experiment: Cytotoxicity against human HL-60(TB) cells after 48 hrs by trypan blue dye exclusion assay; format: functional; conditions: HL-60, 48 h
SW-620 = experiment: Cytotoxicity against human SW620 cells after 48 hrs by trypan blue dye exclusion assay; format: functional; conditions: SW-620, 48 h
SR = experiment: Cytotoxicity against human SR cells after 48 hrs by trypan blue dye exclusion assay; format: functional
A498 = experiment: Cytotoxicity against human A498 cells after 48 hrs by trypan blue dye exclusion assay; format: functional; conditions: A498, 48 h
MOLT-4 = experiment: Cytotoxicity against human MOLT4 cells after 48 hrs by trypan blue dye exclusion assay; format: functional; conditions: MOLT-4, 48 h
NCI-H226 = experiment: Cytotoxicity against human NCI-H226 cells after 48 hrs by trypan blue dye exclusion assay; format: functional; conditions: NCI-H226, 48 h
OVCAR-8 = experiment: Cytotoxicity against human OVCAR8 cells after 48 hrs by trypan blue dye exclusion assay; format: functional; conditions: OVCAR-8, 48 h
MCF7 = experiment: Cytotoxicity against human MCF7 cells after 48 hrs by trypan blue dye exclusion assay; format: functional; conditions: MCF7, 48 h
OVCAR-5 = experiment: Cytotoxicity against human OVCAR5 cells after 48 hrs by trypan blue dye exclusion assay; format: functional; conditions: OVCAR-5, 48 h
SF-268 = experiment: Cytotoxicity against human SF268 cells after 48 hrs by trypan blue dye exclusion assay; format: functional; conditions: SF-268, 48 h
Malme-3M = experiment: Cytotoxicity against human MALME-3M cells after 48 hrs by trypan blue dye exclusion assay; format: functional
UACC-62 = experiment: Cytotoxicity against human UACC62 cells after 48 hrs by trypan blue dye exclusion assay; format: functional; conditions: UACC-62, 48 h
TK-10 = experiment: Cytotoxicity against human TK10 cells after 48 hrs by trypan blue dye exclusion assay; format: functional; conditions: TK-10, 48 h
OVCAR-4 = experiment: Cytotoxicity against human OVCAR4 cells after 48 hrs by trypan blue dye exclusion assay; format: functional; conditions: OVCAR-4, 48 h
SF-539 = experiment: Cytotoxicity against human SF539 cells after 48 hrs by trypan blue dye exclusion assay; format: functional; conditions: SF-539, 48 h
EKVX = experiment: Cytotoxicity against human EKVX cells after 48 hrs by trypan blue dye exclusion assay; format: functional
HOP-92 = experiment: Cytotoxicity against human HOP92 cells after 48 hrs by trypan blue dye exclusion assay; format: functional; conditions: HOP-92, 48 h

For `COc1cc([C@H]2C3=C(COC3=O)Nc3cc4c(cc32)OCO4)cc2c1OCO2`, the GI50 (HCC 2998) was 387 nM, the GI50 (HCT-116) was 236 nM and the GI50 (SNB-75) was 26.7 nM. For the same compound, the GI50 (SK-MEL-28) was 61 nM, the GI50 (SK-MEL-5) was 101 nM and the GI50 (U-251) was 108 nM. For the same compound, the GI50 (HT-29) was 1250 nM, the GI50 (UO-31) was 1380 nM and the GI50 (LOX IMVI) was 117 nM. For the same compound, the GI50 [1] was 37.8 nM, the Activity (Paracentrotus lividus [2]) was “inactive” and the GI50 (ACHN) was 357 nM. It also gave a GI50 (KM12) of 36.2 nM, a GI50 (NCI/ADR-RES) of 103 nM and a GI50 (SN12C) of 350 nM. The GI50 (HCT-15) was 256 nM, the GI50 (MDA-MB-468) was 119 nM and the GI50 (SK-MEL-2) was 207 nM. For the same compound, the Activity (Paracentrotus lividus [3]) was “inactive”, the GI50 (CAKI-1) was 128 nM and the GI50 (A549) was 306 nM. The GI50 (CCRF-CEM) was 120 nM, the GI50 (SNB-19) was 362 nM and the GI50 (BT-549) was 338 nM. The GI50 (MDA-MB-231) was 308 nM, the GI50 (SF-295) was 29 nM and the GI50 (RXF 393) was 30.3 nM. The GI50 (NCI-H322M) was 142 nM, the GI50 (IGROV-1) was 185 nM and the GI50 (NCI-H460) was 690 nM. For the same compound, the GI50 (SK-OV-3) was 155 nM, the GI50 (UACC-257) was 74.1 nM and the Activity (Paracentrotus lividus [4]) was “inactive”. For the same compound, the GI50 (NCI-H522) was 144 nM, the GI50 (RPMI-8226) was 93.1 nM and the GI50 (NCI-H23) was 142 nM. For the same compound, the GI50 (PC-3) was 80.3 nM, the GI50 (M14) was 228 nM and the GI50 (MDA-MB-435) was 26.9 nM. The GI50 (COLO 205) was 186 nM, the GI50 (OVCAR-3) was 31.9 nM and the GI50 (DU-145) was 173 nM. The GI50 (786-0) was 321 nM, the GI50 (HL-60(TB)) was 99 nM and the GI50 (SW-620) was 98.2 nM. For the same compound, the GI50 (SR) was 60.1 nM, the GI50 (A498) was 30.9 nM and the GI50 (MOLT-4) was 360 nM. The GI50 (NCI-H226) was 4590 nM, the GI50 (OVCAR-8) was 232 nM and the GI50 (MCF7) was 37.2 nM. For the same compound, the GI50 (OVCAR-5) was 1090 nM, the GI50 (SF-268) was 108 nM and the GI50 (Malme-3M) was greater than 100000 nM. It also gave a GI50 (UACC-62) of 48 nM, a GI50 (TK-10) of 115 nM and a GI50 (OVCAR-4) of 98.4 nM. It also gave a GI50 (SF-539) of 48.3 nM, a GI50 (EKVX) of 320 nM and a GI50 (HOP-92) of 136 nM.
